Experimental data from patent EP4763228A1, “PENTACYCLIC ACTIVE COMPOUND AND CONJUGATE THEREOF AND USE THEREOF” (Keymed Biosciences (Chengdu) Co., Ltd., priority 2023, dated 2025).

What was measured:
Experiment in all cases: In vitro proliferation inhibition of compounds of formula (GH), CCK8, 6 days
Assay type in all cases: cell-based, human
NCI-N87 tumor cells = tested on: NCI-N87 tumor cells
Description: (§1) The object of this experiment is to test the in vitro killing activity of the compounds of the formula (GH) of the present disclosure on A549 tumor cells (human lung cancer cells, Beijing Tongren Hospital), SK-BR-3 tumor cells (human breast cancer cells, Wuhan Punosai, Cat. No. CL-0211) and NCI-N87 tumor cells (human gastric cancer cells, Cell Resource Center, Institute of Basic Medical Sciences, Chinese Academy of Medical Sciences, Cat. No. 3111C0001CCC000481). The cells were treated with different concentrations of the compounds in vitro and cultured for 6 days, then the in vitro activity of the test compounds was evaluated based on IC50 values by measuring the number of viable cells using CCK8 (Cell Counting Kit-8, Cat. No. TS547) reagent.
(§2) Taking the test method of in vitro killing activity against A549 cells, SK-BR-3 cells and NCI-N87 cells as an example, the test was carried out as follows. […] After the cells were completely digested, 10 mL cell culture medium containing 10% FBS was added, the digested cells were eluted, centrifuged at 300 g for 5 min, and the supernatant was discarded. […]

A549 tumor cells = tested on: A549 tumor cells
Description: as §1, §2

SK-BR-3 tumor cells = tested on: SK-BR-3 tumor cells
Description: as §1, §2

[1] = conclusion in words, comparison with Reference 1 at the same dose

For `O=C1OCc2c(cc3n(c2=O)Cc2c-3nc3cc4c(cc3c2CCCCO)OCO4)[C@@]1(O)CC1CC1` [Compound 3], which IC50 (NCI-N87 tumor cells; Homo sapiens, 144 h, NCI-N87 cells, 6 days, CCK8, 2% FBS) is on record?
Its IC50 is 0.44 nM.

And the “inhibitory effect on the proliferation of NCI-N87 cells in vitro” value (NCI-N87 tumor cells; [1])?
Its value is “significantly higher inhibitory effect”.

And the IC50 (A549 tumor cells; Homo sapiens, 144 h, A549 cells, 6 days, CCK8, 2% FBS)?
Its IC50 is 1.68 nM.

And the “inhibitory effect on the proliferation of A549 cells in vitro” value (A549 tumor cells; [1])?
Its value is “significantly higher inhibitory effect”.

And the IC50 (SK-BR-3 tumor cells; Homo sapiens, 144 h, SK-BR-3 cells, 6 days, CCK8, 2% FBS)?
The IC50 was 0.24 nM.

What about the “inhibitory effect on the proliferation of SK-BR-3 cells in vitro” value (SK-BR-3 tumor cells; [1]) of the same compound?
Its value is “significantly higher inhibitory effect”.
